In PMC6825211 (Nature Communications, 2019):
Values joined by “and” are separate entries in the source; they are usually repeats but may differ in a detail not shown here. Identical values can stand only once. “Also recorded” adds a separate entry of the source.

Legend:
PDGFR-ALPHA = PDGFR-ALPHA (Homo sapiens, UniProt P16234); assay: Nanosyn kinase profiling, mobility shift assay; conditions: read-out: % inhibition by neratinib
[1] = tested on: obese diabetic Lepr db/db mice; assay: db/db model: insulin secretion during ipGTT; assay type: in vivo, mouse; design: GSIS: unit not given here
Source text: Data are representative of six mice per group (n = 6 for (a–f)). g–j Mice were killed at day 31. g β-cell mass (given as percentage of the whole pancreatic section from ten sections spanning the width of the pancreas; n = 5 mice/group) and quantitative analyses from triple stainings for (h) TUNEL, (i) Ki67, (j) pHH3, and (k) nuclear PDX1 expression, insulin, and DAPI expressed as percentage of TUNEL-, Ki67-, pHH3-, or nuclear PDX1-positive β-cells ± SEM. An average number of 13667 (h), 5937 (i), 7108 (j), or 4330 (k) β-cells were counted from n = 3–5 (h, i, k) or n = 5–6 (j) mice/group.
For intraperitoneal glucose tolerance tests, mice were fasted 12 h overnight and injected i.p. with glucose (40%; B.Braun, Melsungen, Germany) at a dose of 1 g/kg body weight. Blood samples were obtained at time points 0, 15, 30, 60, 90, and 120 min for glucose measurements by using a Glucometer. For i.p. insulin tolerance tests, mice were injected with 0.75 U/kg body weight recombinant human insulin (Novolin, Novo Nordisk) after 4–5-h fasting, and glucose concentration was determined with the Glucometer. Insulin secretion was measured before (0 min) and after (15 and 30 min) i.p. injection of glucose (2 g/kg) and measured by using ultrasensitive mouse Elisa kit (ALPCO Diagnostics, Salem, NH).

ABL1 = ABL1 (Homo sapiens, UniProt P00519); assay: Nanosyn kinase profiling, mobility shift assay; conditions: read-out: % inhibition by neratinib
JAK2 = JAK2 (Homo sapiens, UniProt O60674); assay: Nanosyn kinase profiling, mobility shift assay; conditions: read-out: % inhibition by neratinib
[2] = tested on: obese diabetic Lepr db/db mice; assay: db/db model: β-cell proliferation (Ki67); assay type: in vivo, mouse; conditions: dbdb mice
FLT-3 = FLT-3 (Homo sapiens, UniProt P36888); assay: Nanosyn kinase profiling, mobility shift assay; conditions: read-out: % inhibition by neratinib
db/db model: body weight = conditions: 5 mg/kg i.p. daily, 31 days
MST1–LATS2 signaling = assay: LATS-BS in vitro luciferase assay (MST1/LATS2 overexpression); conditions: for Firefly/Renilla x1000 (MEAN): L2/Mst1 overexpression + 10 μM compound
Source text: Therefore a LATS-BS construct has been generated with fusion of YAP fragment and 14-3-3 with N-terminal and C-terminal firefly luciferase fragments (N-luc and C-luc), respectively that assesses LATS kinase activity by measuring the interaction between pS127-YAP and 14-3-3[35] in a MST1–LATS2-phosphorylation-dependent manner (Fig. 4a).
As internal transfection control, pRL-Renilla luciferase control reporter vector (Promega) was co-transfected into each sample. […] Luciferase signal was calculated based on the ratio of luciferase activity of LATS-BS to control reporter vector.

AMP-A1B1G1 = AMP-A1B1G1 (Homo sapiens, UniProt Q13131); assay: Nanosyn kinase profiling, mobility shift assay; conditions: read-out: % inhibition by neratinib
P38-ALPHA = P38-ALPHA (Homo sapiens, UniProt Q16539); assay: Nanosyn kinase profiling, mobility shift assay; conditions: read-out: % inhibition by neratinib
CHEK1 = CHEK1 (Homo sapiens, UniProt O14757); assay: Nanosyn kinase profiling, mobility shift assay; conditions: read-out: % inhibition by neratinib
Raw264.7 cells = assay: RT-PCR of LPS-induced TNFα, IL-1β, IL-6 expression; conditions: 100 ng/mL LPS 4 h
Source text: One microgram of cDNA of each treatment sample was synthesized by using SuperScript III First-Strand Synthesis (Invitrogen). Taqman mouse primers were purchased from ThermoFisher: TNFα (Catalog No. Mm00443258_m1), IL-6 (Catalog No. Mm00446190_m1), IL-1β (Catalog No. Mm00434228_m1), and GAPDH as endogenous housekeeping control (Catalog No. Mm99999915_g1). The qPCR reaction was set up for TNFα, IL-6, IL-1β, and GAPDH individually, with technical triplicates for each gene per treatment sample and performed by the Applied Biosystems ViiA 7 real-time PCR system. The ∆∆CT method was used to analyze the relative changes in gene expression.

MLD–STZ C57BL/6J mice = assay: MLD–STZ model: β-cell mass; assay type: in vivo, mouse; design: BCM: unit not given here
Method: C57Bl/6J mice were injected with 40 mg/kg streptozotocin or citrate buffer for 5 consecutive days. […] In d, basal glucose values were normalized to 100%. e Insulin secretion measured from retro-orbital blood draw during an ipGTT measured before (0 min) and 15 min after glucose injection; data are expressed as the ratio of secreted insulin at 15 min/0 min (stimulatory index). f The ratio of secreted insulin and glucose is calculated at fed state. g–i Mice were killed at day 35. g β-cell mass (given as percentage of the whole pancreatic section from ten sections spanning the width of the pancreas) and quantitative analyses from triple staining for h TUNEL or i Ki67, insulin, and DAPI expressed as percentage of TUNEL- or Ki67-positive β-cells ±SEM. An average number of 2331 (h), or 26369 (i) β-cells were counted. n = 9 mice/group for (a); n = 4–12 for (b); n = 5–15 for (c) and (d); n = 12–19 for (e); n = 8–14 for (f); n = 4–9 for (g); n = 4–11 for (h); and n = 6–11 mice/groupfor (i); all from three independent experiments).
For morphometric data, ten sections (spanning the width of the pancreas) per mouse were analyzed. Pancreatic tissue area and insulin-positive area were determined by computer-assisted measurements by using a Nikon MEA53200 (Nikon GmbH, Dusseldorf, Germany) microscope, and images were acquired by using NIS-Elements software (Nikon). β-cell mass was obtained by multiplying the β-cell fraction by the weight of the pancreas.

human islets [3] = assay: Western blot of pMST1 and caspase-3 cleavage under diabetogenic conditions; conditions: 72 h, six donors
CAMK4 = CAMK4 (Homo sapiens, UniProt Q16566); assay: Nanosyn kinase profiling, mobility shift assay; conditions: read-out: % inhibition by neratinib
[4] = tested on: isolated islets from MST1-KO mice; assay: β-cell apoptosis (TUNEL/insulin) under diabetogenic conditions, MST1-KO islets
PDK1 = PDK1 (Homo sapiens, UniProt O15530); assay: Nanosyn kinase profiling, mobility shift assay; conditions: read-out: % inhibition by neratinib
DAPK1 = DAPK1 (Homo sapiens, UniProt P53355); assay: Nanosyn kinase profiling, mobility shift assay; conditions: read-out: % inhibition by neratinib
PAK2 = PAK2 (Homo sapiens, UniProt Q13177); assay: biochemical; conditions: read-out: % inhibition by neratinib
human islets [5] = assay: β-cell apoptosis (TUNEL/insulin) after Ad-MST1 overexpression; conditions: for mean TUNEL/isolation/%: MST1 OE + NERA 10 μM 48 h
Method: Isolated human islets or INS-1E cells were infected with adenovirus carrying LacZ as control or MST1 or LATS2 (all Vector Biolabs), at a multiplicity of infection of 100 (human islets) or 20 (INS-1E) for 4 h[11].

Chain of JAK2 (O60674 whole entry): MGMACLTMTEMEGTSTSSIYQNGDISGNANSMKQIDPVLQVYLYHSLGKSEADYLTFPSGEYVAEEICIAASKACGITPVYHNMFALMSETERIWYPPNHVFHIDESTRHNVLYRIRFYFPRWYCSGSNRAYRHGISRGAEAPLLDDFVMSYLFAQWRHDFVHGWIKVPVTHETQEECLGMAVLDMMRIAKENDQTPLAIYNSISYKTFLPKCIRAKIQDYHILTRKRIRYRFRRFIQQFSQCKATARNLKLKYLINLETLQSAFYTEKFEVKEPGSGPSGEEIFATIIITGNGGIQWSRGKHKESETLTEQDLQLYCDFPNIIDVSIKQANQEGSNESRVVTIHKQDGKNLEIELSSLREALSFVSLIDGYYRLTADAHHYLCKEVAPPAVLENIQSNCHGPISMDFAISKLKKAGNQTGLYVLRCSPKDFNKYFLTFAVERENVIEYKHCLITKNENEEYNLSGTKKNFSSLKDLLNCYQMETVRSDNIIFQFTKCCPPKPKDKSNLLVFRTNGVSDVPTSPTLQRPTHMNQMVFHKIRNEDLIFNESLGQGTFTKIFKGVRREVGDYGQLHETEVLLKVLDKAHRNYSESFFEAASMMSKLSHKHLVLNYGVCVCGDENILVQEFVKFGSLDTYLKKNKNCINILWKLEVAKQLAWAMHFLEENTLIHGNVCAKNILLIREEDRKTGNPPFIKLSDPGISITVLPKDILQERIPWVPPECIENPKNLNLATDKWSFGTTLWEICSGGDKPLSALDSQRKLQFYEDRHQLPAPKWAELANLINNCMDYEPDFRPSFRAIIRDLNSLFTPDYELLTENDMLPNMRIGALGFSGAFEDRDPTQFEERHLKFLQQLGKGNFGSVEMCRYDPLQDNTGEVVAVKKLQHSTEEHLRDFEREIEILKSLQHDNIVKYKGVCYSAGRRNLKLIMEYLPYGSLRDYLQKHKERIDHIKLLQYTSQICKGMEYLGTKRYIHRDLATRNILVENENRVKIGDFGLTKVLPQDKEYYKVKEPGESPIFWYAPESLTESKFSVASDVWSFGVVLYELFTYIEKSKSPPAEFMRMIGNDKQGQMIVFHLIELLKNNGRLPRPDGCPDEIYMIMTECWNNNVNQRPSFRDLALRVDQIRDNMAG
Chain of PAK2 (Q13177 whole entry, species assumed): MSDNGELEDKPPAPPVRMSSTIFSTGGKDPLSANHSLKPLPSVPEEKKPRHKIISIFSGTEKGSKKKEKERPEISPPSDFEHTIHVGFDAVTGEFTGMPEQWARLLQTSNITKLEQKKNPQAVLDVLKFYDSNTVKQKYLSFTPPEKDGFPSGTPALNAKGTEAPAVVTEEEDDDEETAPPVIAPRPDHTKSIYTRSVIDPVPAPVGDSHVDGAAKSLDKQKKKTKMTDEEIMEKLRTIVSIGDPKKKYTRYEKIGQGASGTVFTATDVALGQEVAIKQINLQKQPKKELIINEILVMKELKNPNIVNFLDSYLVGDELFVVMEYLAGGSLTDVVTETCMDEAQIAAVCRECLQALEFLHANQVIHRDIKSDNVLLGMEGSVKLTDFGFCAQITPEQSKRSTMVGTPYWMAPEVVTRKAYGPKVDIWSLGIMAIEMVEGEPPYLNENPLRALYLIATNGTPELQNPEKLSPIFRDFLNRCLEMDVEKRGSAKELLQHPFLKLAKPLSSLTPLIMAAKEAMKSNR
Chain of P38-ALPHA (Q16539 whole entry): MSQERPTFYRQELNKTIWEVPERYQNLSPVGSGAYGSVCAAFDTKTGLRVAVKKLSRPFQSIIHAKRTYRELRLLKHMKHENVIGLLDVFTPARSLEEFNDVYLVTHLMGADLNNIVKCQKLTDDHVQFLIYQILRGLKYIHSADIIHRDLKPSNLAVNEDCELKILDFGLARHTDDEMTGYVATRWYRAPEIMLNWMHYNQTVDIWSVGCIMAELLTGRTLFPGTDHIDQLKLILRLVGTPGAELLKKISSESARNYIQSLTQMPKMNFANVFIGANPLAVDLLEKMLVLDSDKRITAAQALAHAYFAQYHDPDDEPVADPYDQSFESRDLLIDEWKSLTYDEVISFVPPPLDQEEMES
Chain of PDGFR-ALPHA (P16234 24-1089): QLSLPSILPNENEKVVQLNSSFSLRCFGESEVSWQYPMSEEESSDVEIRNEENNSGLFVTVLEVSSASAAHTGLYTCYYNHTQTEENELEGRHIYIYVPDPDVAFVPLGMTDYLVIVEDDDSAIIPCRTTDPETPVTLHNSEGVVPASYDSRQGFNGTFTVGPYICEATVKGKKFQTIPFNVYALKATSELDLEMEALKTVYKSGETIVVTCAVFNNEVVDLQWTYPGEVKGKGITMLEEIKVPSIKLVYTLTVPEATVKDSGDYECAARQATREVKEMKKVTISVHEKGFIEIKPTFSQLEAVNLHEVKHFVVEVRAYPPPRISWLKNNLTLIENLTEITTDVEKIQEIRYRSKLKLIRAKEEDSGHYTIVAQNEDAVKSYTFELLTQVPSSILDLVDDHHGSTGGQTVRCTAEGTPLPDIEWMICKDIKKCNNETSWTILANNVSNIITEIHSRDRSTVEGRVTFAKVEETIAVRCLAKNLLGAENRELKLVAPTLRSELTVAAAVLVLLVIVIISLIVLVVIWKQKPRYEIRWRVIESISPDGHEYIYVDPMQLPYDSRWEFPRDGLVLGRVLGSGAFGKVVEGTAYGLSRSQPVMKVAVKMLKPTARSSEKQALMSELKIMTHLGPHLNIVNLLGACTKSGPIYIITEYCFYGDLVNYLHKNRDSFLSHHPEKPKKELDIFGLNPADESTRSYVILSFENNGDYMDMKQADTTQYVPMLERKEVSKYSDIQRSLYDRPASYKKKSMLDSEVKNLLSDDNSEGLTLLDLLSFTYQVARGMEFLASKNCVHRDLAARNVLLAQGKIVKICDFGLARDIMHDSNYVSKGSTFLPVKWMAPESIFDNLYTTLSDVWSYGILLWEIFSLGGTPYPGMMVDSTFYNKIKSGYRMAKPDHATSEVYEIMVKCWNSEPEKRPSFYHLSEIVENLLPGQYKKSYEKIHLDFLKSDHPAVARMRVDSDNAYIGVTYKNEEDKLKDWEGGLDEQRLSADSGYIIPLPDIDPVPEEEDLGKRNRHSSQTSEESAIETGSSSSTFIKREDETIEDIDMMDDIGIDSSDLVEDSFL
Chain of AMP-A1B1G1 (Q13131 whole entry): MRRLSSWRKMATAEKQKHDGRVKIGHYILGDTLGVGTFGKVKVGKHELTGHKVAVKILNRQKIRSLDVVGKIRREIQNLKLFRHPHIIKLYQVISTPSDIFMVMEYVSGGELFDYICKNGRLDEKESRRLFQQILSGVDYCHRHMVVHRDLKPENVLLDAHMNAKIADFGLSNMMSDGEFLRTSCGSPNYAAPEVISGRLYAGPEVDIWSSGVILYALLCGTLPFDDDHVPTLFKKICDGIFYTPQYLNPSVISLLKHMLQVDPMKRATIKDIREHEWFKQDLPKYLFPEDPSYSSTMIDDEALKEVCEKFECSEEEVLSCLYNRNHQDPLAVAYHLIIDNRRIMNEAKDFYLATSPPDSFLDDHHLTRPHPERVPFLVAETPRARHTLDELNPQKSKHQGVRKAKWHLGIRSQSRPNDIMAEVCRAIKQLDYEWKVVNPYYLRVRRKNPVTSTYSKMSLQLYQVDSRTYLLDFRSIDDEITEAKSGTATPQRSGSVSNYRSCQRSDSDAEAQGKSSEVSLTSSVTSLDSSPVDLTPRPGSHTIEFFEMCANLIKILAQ
Chain of AMP-A1B1G1 (Q9Y478 whole entry partner): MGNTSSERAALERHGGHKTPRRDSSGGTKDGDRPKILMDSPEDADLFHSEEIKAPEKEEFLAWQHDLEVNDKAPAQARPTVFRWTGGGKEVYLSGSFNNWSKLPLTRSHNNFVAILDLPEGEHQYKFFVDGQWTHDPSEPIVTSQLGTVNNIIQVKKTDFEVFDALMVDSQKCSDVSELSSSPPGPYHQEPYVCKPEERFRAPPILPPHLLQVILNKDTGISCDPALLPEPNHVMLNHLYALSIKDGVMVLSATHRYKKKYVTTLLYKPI
Chain of AMP-A1B1G1 (P54619 whole entry partner): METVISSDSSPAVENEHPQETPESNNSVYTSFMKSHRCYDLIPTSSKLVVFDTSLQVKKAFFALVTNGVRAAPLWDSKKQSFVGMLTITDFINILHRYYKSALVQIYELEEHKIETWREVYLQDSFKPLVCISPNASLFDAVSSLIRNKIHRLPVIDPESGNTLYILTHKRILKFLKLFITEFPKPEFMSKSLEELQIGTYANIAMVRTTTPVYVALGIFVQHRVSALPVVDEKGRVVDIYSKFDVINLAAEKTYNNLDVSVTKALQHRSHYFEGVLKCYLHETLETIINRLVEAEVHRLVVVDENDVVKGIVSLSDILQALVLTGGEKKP
Chain of PDK1 (O15530 whole entry): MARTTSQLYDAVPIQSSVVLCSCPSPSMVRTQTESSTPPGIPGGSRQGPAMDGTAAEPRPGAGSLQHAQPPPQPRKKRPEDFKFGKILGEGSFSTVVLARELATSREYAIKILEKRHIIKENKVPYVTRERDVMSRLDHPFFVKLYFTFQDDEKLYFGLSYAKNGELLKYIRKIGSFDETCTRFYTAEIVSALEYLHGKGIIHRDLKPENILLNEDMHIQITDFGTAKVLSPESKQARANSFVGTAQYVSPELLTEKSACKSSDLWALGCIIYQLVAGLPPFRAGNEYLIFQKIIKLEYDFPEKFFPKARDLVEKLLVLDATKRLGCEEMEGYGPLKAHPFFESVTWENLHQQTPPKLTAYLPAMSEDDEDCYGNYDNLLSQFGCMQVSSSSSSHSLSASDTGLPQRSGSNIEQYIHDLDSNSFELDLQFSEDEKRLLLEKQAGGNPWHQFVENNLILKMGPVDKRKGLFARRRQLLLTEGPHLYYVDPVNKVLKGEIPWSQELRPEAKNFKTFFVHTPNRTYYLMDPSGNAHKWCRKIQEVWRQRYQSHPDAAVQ

## CCOc1cc2ncc(C#N)c(Nc3ccc(OCc4ccccn4)c(Cl)c3)c2cc1NC(=O)/C=C/CN(C)C [neratinib]
PDGFR-ALPHA
  inhibition at 10 µM: 31%
[1]; db/db
  insulin secretion: enhanced insulin secretion
[1]; time after glucose injection 0, MEAN
  GSIS: 7.868
[1]; time after glucose injection 0, individual mice
  GSIS: 7.6163 and 7.7481 and 3.303 and 9.154 and 8.9273 and 10.458
[1]; time after glucose injection 15, MEAN
  GSIS: 11.2434
[1]; time after glucose injection 15, individual mice
  GSIS: 17.086 and 7.6058 and 10.292 and 7.1842 and 8.1355 and 17.157
ABL1
  inhibition at 10 µM: 36%
JAK2
  inhibition at 10 µM: 18%
[2]; Mean
  Ki67%/ mouse: 1.047%
[2]; individual mice
  Ki67%/ mouse: 0.4896% and 1.365% and 0.6515% and 1.681%
FLT-3
  inhibition at 10 µM: 47%
db/db model: body weight
  body weight: no influence on body weight
MST1–LATS2 signaling; 10 μM, last 24 h
  MST1/LATS2-induced luciferase activity (LATS-BS): strongly inhibited
MST1–LATS2 signaling; mean of six dishes
  Firefly/Renilla x1000 (MEAN): 10.9109
MST1–LATS2 signaling; single culture dishes
  Firefly/Renilla x1000 (MEAN): 12.1618
AMP-A1B1G1
  inhibition at 10 µM: 11%
P38-ALPHA
  inhibition at 10 µM: 15%
CHEK1
  inhibition at 10 µM: 27%
Raw264.7 cells
  LPS-induced expression of TNFα, IL-1β, and IL-6: largely inhibited
MLD–STZ C57BL/6J mice; NeraCtr group (no STZ), MEAN
  BCM: 1.179
MLD–STZ C57BL/6J mice; NeraCtr group (no STZ), individual mice
  BCM: 1.212 and 1.511 and 1.035 and 0.9571
MLD–STZ C57BL/6J mice; NeraSTZ group, MEAN
  BCM: 0.6212
MLD–STZ C57BL/6J mice; NeraSTZ group, individual mice
  BCM: 1.314 and 0.4366 and 0.7768 and 0.269 and 0.7149 and 0.2555 and 0.5691 and 0.3836 and 0.8706
MLD–STZ C57BL/6J mice; STZ mice, day 35
  β-cell mass: restored β-cell mass
Human islets [3]
  cytokine- and high glucose/palmitate-induced MST1 activation and caspase-3 activation: potently and significantly inhibited
CAMK4
  inhibition at 10 µM: 19%
[4]; 10 μM, 72 h
  cytokine- and glucolipotoxicity-induced apoptosis in MST1-KO islets: no significant effect
[4]; MST1-KO HG/Pal Nera 10 μM 72 h
  mean TUNEL/isolation/%: 407.974%
[4]; MST1-KO ILIF Nera 10 μM 72 h
  mean TUNEL/isolation/%: 384.79%
PDK1
  inhibition at 10 µM: 6%
DAPK1
  inhibition at 10 µM: 4%
PAK2
  inhibition at 10 µM: 101%
Human islets [5]; 10 μM, 48 h
  β-cell apoptosis induced by MST1 overexpression: significantly blocked; also recorded: almost fully blocked
Human islets [5]; mean, LacZ = 100
  mean TUNEL/isolation/%: 126.263%
Human islets [5]; single isolations, LacZ mean = 100
  mean TUNEL/isolation/%: 100% and 145.455% and 133.333%
